Test results taken from publication PMC6661730, “Biochemical characterization of a novel exo-oligoxylanase from Paenibacillus barengoltzii suitable for monosaccharification from corncobs” (Biotechnology for Biofuels, 2019).

Molecular target: T1, PbRex8 (Paenibacillus barengoltzii, UniProt R9L536)
T1 construct: gene C812_03928; full-length ORF, 382 residues (predicted 44 kDa), no signal peptide; N-terminal His6-tag from pET-28a(+) (NheI/XhoI), tag cleavage not mentioned; E. coli BL21(DE3); monomer; primers encode N-terminal MKEHQG and C-terminal RGEA
Assay: HPLC-RID xylose release, nonlinear regression
Format: biochemical
Settings: competitive; X3 as substrate, 5 mM citrate pH 5.5, 55 °C

T1 sequence (R9L536 entry or part of it): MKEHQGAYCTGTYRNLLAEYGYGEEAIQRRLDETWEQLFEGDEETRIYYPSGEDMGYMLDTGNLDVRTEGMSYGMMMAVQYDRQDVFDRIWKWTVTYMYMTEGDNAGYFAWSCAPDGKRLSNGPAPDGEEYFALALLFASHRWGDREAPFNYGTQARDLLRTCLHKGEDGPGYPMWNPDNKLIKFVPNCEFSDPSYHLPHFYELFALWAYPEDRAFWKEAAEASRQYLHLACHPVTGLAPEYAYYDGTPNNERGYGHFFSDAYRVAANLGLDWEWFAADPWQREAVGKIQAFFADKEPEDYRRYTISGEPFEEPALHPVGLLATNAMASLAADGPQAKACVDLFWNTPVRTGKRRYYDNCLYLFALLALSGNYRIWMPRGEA

Ki: 12.9 ± 0.6 mM
SMILES: OC1OC[C@@H](O)[C@H](O)[C@H]1O (stereo partly shown) [X, xylose]
